Target: T1, human CLCA4-expressing CHO cells (Homo sapiens, UniProt Q14CN2)
T1 construct: expressed in transfected cells
T1 sequence (Q14CN2 22-919): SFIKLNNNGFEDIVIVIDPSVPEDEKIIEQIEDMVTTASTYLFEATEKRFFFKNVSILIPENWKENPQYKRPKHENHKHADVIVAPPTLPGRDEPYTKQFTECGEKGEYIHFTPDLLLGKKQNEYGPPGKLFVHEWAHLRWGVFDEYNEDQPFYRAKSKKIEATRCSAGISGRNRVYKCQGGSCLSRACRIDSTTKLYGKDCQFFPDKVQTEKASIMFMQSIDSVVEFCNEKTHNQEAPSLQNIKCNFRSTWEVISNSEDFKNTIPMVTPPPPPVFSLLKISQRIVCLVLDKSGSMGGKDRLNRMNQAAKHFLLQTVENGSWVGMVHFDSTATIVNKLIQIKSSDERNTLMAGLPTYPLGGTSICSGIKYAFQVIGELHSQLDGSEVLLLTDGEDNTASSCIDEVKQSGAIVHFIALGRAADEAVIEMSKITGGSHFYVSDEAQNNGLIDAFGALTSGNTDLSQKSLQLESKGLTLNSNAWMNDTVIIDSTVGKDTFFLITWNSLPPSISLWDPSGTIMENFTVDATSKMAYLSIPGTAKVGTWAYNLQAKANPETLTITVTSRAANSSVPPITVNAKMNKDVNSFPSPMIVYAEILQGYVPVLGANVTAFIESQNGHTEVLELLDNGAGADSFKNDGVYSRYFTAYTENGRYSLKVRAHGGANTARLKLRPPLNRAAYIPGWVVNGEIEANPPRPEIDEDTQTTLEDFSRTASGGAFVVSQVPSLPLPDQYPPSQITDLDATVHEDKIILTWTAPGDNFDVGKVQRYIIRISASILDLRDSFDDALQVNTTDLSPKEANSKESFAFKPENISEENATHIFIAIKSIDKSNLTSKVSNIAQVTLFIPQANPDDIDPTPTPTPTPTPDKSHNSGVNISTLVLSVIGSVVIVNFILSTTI
Test: Ca2+ dependent Cl- channel activity, FLIPR Membrane Potential Assay, ionomycin stimulation
Type: cell-based
Conditions: 2 μM ionomycin, compound added, then cells left for 10 min at room temperature, FIG. 3
Procedure: The ClCA4 expression plasmid pcDNA-hCLCA4 described in (2) above was introduced into CHO cells using FuGENE 6 (Roche Diagnostics) according to the manual accompanying it. The cells were subjected to selective culture in 1 mg/ml neomycin (G418) (Gibco BRL)-added MEM-α medium (Gibco BRL) for 10 days, and cells growing in this medium were obtained as CLCA4 expressing CHO cells. These CLCA4-expressing CHO cells and parent strain CHO cells were plated in 96-well black clear bottom plates (Corning) at 4×10^4 cells/well and cultured overnight. Cl^− channel activity was measured using FLIPR Membrane Potential Assay Kit (Molecular Device). A potential sensitive dye (Component A) diluted with 20 mM HEPES-containing HBSS buffer (Component B) was added to the plates at […] and reacted at 37° C. for 30 min. Then, the plates were set in FLIPR (Molecular Device) and, after addition of ionomycin (Wako Purechemical industries) at a final concentration of 2 μM, changes in fluorescence were observed as Cl^− channel activity. In both parent strain CHO cells and human CLCA4-expressing CHO cells, increase in fluorescence intensity was hardly recognized in the absence of stimulation. When stimulated with 2 μM ionomycin, increase in fluorescence intensity was observed only in human CLCA4-expressing CHO cells (FIG. 2). […]

increase in fluorescence intensity caused by stimulation with ionomycin (Cl- channel activity): inhibited
Structure (SMILES): O=C(O)c1cccnc1Nc1cccc(C(F)(F)F)c1 [niflumic acid]

From patent US20040185500A1, “Use of disease-associated gene” (priority 2001, published 2004)
